Molecular target: T1, ChMDH (Cladosporium herbarum, UniProt P0C0Y5)
T1 construct: full length, codon-optimised synthetic gene, pET-28a, E. coli BL21(DE3), N-terminal His-tag cleaved, tetramer
Assay: X-ray crystal structure, […] Å
Assay type: binding
Conditions: co-crystallised with 5 mM NADP+, pH 7.0, 4 °C; active site

T1 sequence (P0C0Y5 whole entry): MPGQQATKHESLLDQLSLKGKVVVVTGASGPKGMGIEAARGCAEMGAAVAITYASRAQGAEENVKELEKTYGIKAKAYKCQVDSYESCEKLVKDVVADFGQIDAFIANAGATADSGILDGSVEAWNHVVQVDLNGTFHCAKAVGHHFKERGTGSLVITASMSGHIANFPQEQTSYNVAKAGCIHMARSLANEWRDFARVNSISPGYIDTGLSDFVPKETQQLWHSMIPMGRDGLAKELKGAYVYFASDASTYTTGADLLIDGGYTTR

Compound: NC(=O)c1ccc[n+]([C@@H]2O[C@H](COP(=O)(O)OP(=O)(O)OC[C@H]3O[C@@H](n4cnc5c(N)ncnc54)[C@H](OP(=O)(O)O)[C@@H]3O)[C@@H](O)[C@H]2O)c1 [NADP^+]
- X-ray crystal structure, 2.04 Å: ChMDH (the third orphan allergen selected for study) in complex with NADP^+ was determined

— paper PMC9489553, “Biochemical and clinical studies of putative allergens to assess what distinguishes them from other non-allergenic proteins in the same family” (Transgenic Research, 2022)
